Measured values: publication PMC10518257 (Nature Cancer, 2023)
Values joined by “and” are separate entries in the source; they are usually repeats but may differ in a detail not shown here. Equal values may be shown once. Read-outs that look alike come from different tables or passages of the source.

Test: Pharmacokinetic analysis of vepafestinib in rats (microdialysis PFC, CSF, plasma)
Format: in vivo, male Han Wistar rats
[1] = male, Han Wistar, rat, prefrontal cortex microdialysate, oral, 3 mg/kg, individual rats
[2] = male, Han Wistar, rat, prefrontal cortex microdialysate, oral, 10 mg/kg, individual rats

Q: With COCc1ccc(NC(=O)c2c(C#CCN3CCOCC3)n(C3(C)CC3)c3ncnc(N)c23)cc1 [Vepafestinib, 4-amino-N-[4-(methoxymethyl)phenyl]-7-(1-methylcyclopropyl)-6-[3-(morpholin-4-yl)prop-1-yn-1-yl]-7H-pyrrolo[2,3-d]pyrimidine-5-carboxamide] as the compound, how does the “Concentration in Rats, Plasma (free fraction)” value (from here on “Concentration … (free fraction)”) (3 mg/kg, 30 min, individual rats) read?
A: The value was 411 nM and 290 nM and 384 nM and 193 nM.

Q: What about the “Concentration … (free fraction)” value (3 mg/kg, 60 min, individual rats) of the same compound?
A: The value was 248 nM and 212 nM and 391 nM and 168 nM.

Q: And the concentration at 480 min (3 mg/kg, 60 min, individual rats, read-out: Concentration in Rats, Cerebrospinal fluid)?
A: The concentration at 480 min was 109 nM.

Q: What about the concentration at 120 min (3 mg/kg, 60 min, individual rats, read-out: Concentration in Rats, Plasma (total)) of the same compound?
A: Its concentration at 120 min is 1620 nM and 1390 nM and 2560 nM and 1100 nM.

Q: And the “Concentration … (free fraction)” value (3 mg/kg, 120 min, individual rats)?
A: Its value is 129 nM and 143 nM and 163 nM and 115 nM.

Q: What about the “Concentration … (free fraction)” value (3 mg/kg, 180 min, individual rats) of the same compound?
A: Its value is 68 nM and 120 nM and 97.8 nM and 63 nM.

Q: What about the “Concentration … (free fraction)” value (3 mg/kg, 300 min, individual rats) of the same compound?
A: The value was 17.3 nM and 28.1 nM and 50.7 nM and 32.7 nM.

Q: What about the “Concentration … (free fraction)” value (3 mg/kg, 360 min, individual rats) of the same compound?
A: Its value is 8.57 nM and 13.7 nM and 36.5 nM.

Q: And the “Concentration … (free fraction)” value (3 mg/kg, 480 min, individual rats)?
A: The value was 24.3 nM.

Q: And the “Concentration … (free fraction)” value (10 mg/kg, 30 min, individual rats)?
A: Its value is 1323 nM and 1543 nM and 1071 nM and 1204 nM.

Q: What about the “Concentration … (free fraction)” value (10 mg/kg, 60 min, individual rats) of the same compound?
A: The value was 1016 nM and 1083 nM and 660 nM and 921 nM.

Q: What about the “Concentration … (free fraction)” value (10 mg/kg, 120 min, individual rats) of the same compound?
A: Its value is 503 nM and 680 nM and 665 nM and 714 nM.

Q: What about the “Concentration … (free fraction)” value (10 mg/kg, 180 min, individual rats) of the same compound?
A: Its value is 272 nM and 513 nM and 529 nM and 374 nM.

Q: What about the “Concentration … (free fraction)” value (10 mg/kg, 240 min, individual rats) of the same compound?
A: The value was 133 nM and 237 nM and 243 nM and 244 nM.

Q: What about the “Concentration … (free fraction)” value (10 mg/kg, 300 min, individual rats) of the same compound?
A: Its value is 53.6 nM and 90.5 nM and 129 nM and 102 nM.

Q: And the “Concentration … (free fraction)” value (10 mg/kg, 360 min, individual rats)?
A: Its value is 30.4 nM and 53.8 nM and 63.3 nM and 53.6 nM.

Q: And the “Concentration … (free fraction)” value (10 mg/kg, 480 min, individual rats)?
A: The value was 15.6 nM and 25.5 nM and 17.7 nM.

Q: What about the “Concentration … (free fraction)” value (50 mg/kg, 30 min, individual rats) of the same compound?
A: Its value is 2310 nM and 2399 nM and 2002 nM and 1803 nM.

Q: And the “Concentration … (free fraction)” value (50 mg/kg, 60 min, individual rats)?
A: The value was 1589 nM and 1818 nM and 1742 nM and 1803 nM.

Q: What about the “Concentration … (free fraction)” value (50 mg/kg, 120 min, individual rats) of the same compound?
A: The value was 1415 nM and 2506 nM and 1273 nM and 2017 nM.

Q: And the “Concentration … (free fraction)” value (50 mg/kg, 180 min, individual rats)?
A: The value was 947 nM and 2200 nM and 964 nM and 1305 nM.

Q: What about the “Concentration … (free fraction)” value (50 mg/kg, 240 min, individual rats) of the same compound?
A: Its value is 591 nM and 2093 nM and 1166 nM and 1108 nM.

Q: What about the “Concentration … (free fraction)” value (50 mg/kg, 300 min, individual rats) of the same compound?
A: Its value is 740 nM and 1435 nM and 817 nM and 694 nM.

Q: And the “Concentration … (free fraction)” value (50 mg/kg, 360 min, individual rats)?
A: The value was 891 nM and 1181 nM and 821 nM and 400 nM.

Q: What about the “Concentration … (free fraction)” value (50 mg/kg, 480 min, individual rats) of the same compound?
A: Its value is 20.5 nM and 680 nM and 743 nM and 651 nM.

Q: And the concentration at 120 min (male, Han Wistar, rat, cerebrospinal fluid, oral, 3 mg/kg, 120 min, individual rats, read-out: Concentration in Rats, Cerebrospinal fluid)?
A: The concentration at 120 min was 67.4 nM.

Q: And the concentration at 240 min (male, Han Wistar, rat, cerebrospinal fluid, oral, 3 mg/kg, 240 min, individual rats, read-out: Concentration in Rats, Cerebrospinal fluid)?
A: The concentration at 240 min was 28.8 nM.

Q: What about the concentration at 480 min (male, Han Wistar, rat, cerebrospinal fluid, oral, 3 mg/kg, 480 min, individual rats, read-out: Concentration in Rats, Cerebrospinal fluid) of the same compound?
A: The concentration at 480 min was 8.78 nM.

Q: And the concentration at 30 min (male, Han Wistar, rat, cerebrospinal fluid, oral, 10 mg/kg, 30 min, individual rats, read-out: Concentration in Rats, Cerebrospinal fluid)?
A: The concentration at 30 min was 961 nM.

Q: What about the concentration at 120 min (male, Han Wistar, rat, cerebrospinal fluid, oral, 10 mg/kg, 120 min, individual rats, read-out: Concentration in Rats, Cerebrospinal fluid) of the same compound?
A: The concentration at 120 min was 585 nM.

Q: And the concentration at 480 min (male, Han Wistar, rat, cerebrospinal fluid, oral, 50 mg/kg, rats, 50 mg/kg, 480 min, individual animals, read-out: Concentration in Cerebrospinal fluid)?
A: Its concentration at 480 min is 430 nM.

Q: What about the concentration at 480 min (male, Han Wistar, rat, cerebrospinal fluid, oral, 50 mg/kg, 480 min, individual rats, read-out: Concentration in Rats, Cerebrospinal fluid) of the same compound?
A: Its concentration at 480 min is 486 nM.

Q: And the concentration at 120 min (male, Han Wistar, rat, plasma (total), oral, 3 mg/kg, 120 min, individual rats, read-out: Concentration in Rats, Plasma (total))?
A: Its concentration at 120 min is 845 nM.

Q: What about the concentration at 180 min (male, Han Wistar, rat, plasma (total), oral, 3 mg/kg, 180 min, individual rats, read-out: Concentration in Rats, Plasma (total)) of the same compound?
A: Its concentration at 180 min is 445 nM.

Q: And the concentration at 480 min (male, Han Wistar, rat, plasma (total), oral, 3 mg/kg, 480 min, individual rats, read-out: Concentration in Rats, Plasma (total))?
A: Its concentration at 480 min is 159 nM.

Q: What about the concentration at 30 min (male, Han Wistar, rat, plasma (total), oral, 10 mg/kg, 30 min, individual rats, read-out: Concentration in Rats, Plasma (total)) of the same compound?
A: The concentration at 30 min was 8660 nM.

Q: And the concentration at 60 min (male, Han Wistar, rat, plasma (total), oral, 10 mg/kg, 60 min, individual rats, read-out: Concentration in Rats, Plasma (total))?
A: Its concentration at 60 min is 6650 nM.

Q: And the concentration at 120 min (male, Han Wistar, rat, plasma (total), oral, 10 mg/kg, 120 min, individual rats, read-out: Concentration in Rats, Plasma (total))?
A: The concentration at 120 min was 3290 nM.

Q: And the concentration at 180 min (male, Han Wistar, rat, plasma (total), oral, 10 mg/kg, 180 min, individual rats, read-out: Concentration in Rats, Plasma (total))?
A: The concentration at 180 min was 1780 nM.

Q: And the concentration at 240 min (male, Han Wistar, rat, plasma (total), oral, 10 mg/kg, 240 min, individual rats, read-out: Concentration in Rats, Plasma (total))?
A: Its concentration at 240 min is 872 nM.

Q: What about the concentration at 480 min (male, Han Wistar, rat, plasma (total), oral, 10 mg/kg, 480 min, individual rats, read-out: Concentration in Rats, Plasma (total)) of the same compound?
A: Its concentration at 480 min is 102 nM.

Q: What about the concentration at 120 min (male, Han Wistar, rat, plasma (total), oral, 50 mg/kg, rats, 50 mg/kg, 120 min, individual animals, read-out: Concentration in Plasma (total)) of the same compound?
A: Its concentration at 120 min is 9260 nM.

Q: What about the concentration at 30 min (male, Han Wistar, rat, plasma (total), oral, 50 mg/kg, 30 min, individual rats, read-out: Concentration in Rats, Plasma (total)) of the same compound?
A: The concentration at 30 min was 15100 nM.

Q: What about the concentration at 60 min (male, Han Wistar, rat, plasma (total), oral, 50 mg/kg, 60 min, individual rats, read-out: Concentration in Rats, Plasma (total)) of the same compound?
A: The concentration at 60 min was 10400 nM.

Q: What about the concentration at 120 min (male, Han Wistar, rat, plasma (total), oral, 50 mg/kg, 120 min, individual rats, read-out: Concentration in Rats, Plasma (total)) of the same compound?
A: Its concentration at 120 min is 9260 nM.

Q: And the concentration at 30 min (male, Han Wistar, rat, plasma, oral, 50 mg/kg, rats, 50 mg/kg, 30 min, individual animals, read-out: Concentration in Plasma (total))?
A: The concentration at 30 min was 15100 nM.

Q: What about the concentration at 60 min (male, Han Wistar, rat, plasma, oral, 50 mg/kg, rats, 50 mg/kg, 60 min, individual animals, read-out: Concentration in Plasma (total)) of the same compound?
A: Its concentration at 60 min is 10400 nM.

Q: And the concentration at 30 min (male, Han Wistar, rat, prefrontal cortex microdialysate, oral, 3 mg/kg, 30 min, individual rats, read-out: Concentration in Rats, Prefrontal cortex)?
A: Its concentration at 30 min is 7.04 nM.

Q: And the concentration at 90 min [1]?
A: Its concentration at 90 min is 102 nM.

Q: And the concentration at 120 min (male, Han Wistar, rat, prefrontal cortex microdialysate, oral, 3 mg/kg, 120 min, individual rats, read-out: Concentration in Rats, Prefrontal cortex)?
A: Its concentration at 120 min is 129 nM.

Q: And the concentration at 150 min [1]?
A: Its concentration at 150 min is 101 nM.

Q: What about the concentration at 30 min (male, Han Wistar, rat, prefrontal cortex microdialysate, oral, 10 mg/kg, 30 min, individual rats, read-out: Concentration in Rats, Prefrontal cortex) of the same compound?
A: Its concentration at 30 min is 17.5 nM.

Q: What about the concentration at 60 min (male, Han Wistar, rat, prefrontal cortex microdialysate, oral, 10 mg/kg, 60 min, individual rats, read-out: Concentration in Rats, Prefrontal cortex) of the same compound?
A: Its concentration at 60 min is 362 nM.

Q: What about the concentration at 90 min [2] of the same compound?
A: The concentration at 90 min was 514 nM.

Q: And the concentration at 120 min (male, Han Wistar, rat, prefrontal cortex microdialysate, oral, 10 mg/kg, 120 min, individual rats, read-out: Concentration in Rats, Prefrontal cortex)?
A: Its concentration at 120 min is 479 nM.

Q: What about the concentration at 150 min [2] of the same compound?
A: Its concentration at 150 min is 270 nM.

Q: What about the concentration at 180 min (male, Han Wistar, rat, prefrontal cortex microdialysate, oral, 10 mg/kg, 180 min, individual rats, read-out: Concentration in Rats, Prefrontal cortex) of the same compound?
A: The concentration at 180 min was 259 nM.

Q: And the concentration at 120 min (male, Han Wistar, rat, prefrontal cortex microdialysate, oral, 50 mg/kg, rats, 50 mg/kg, 120 min, individual animals, read-out: Concentration in Prefrontal cortex)?
A: The concentration at 120 min was 972 nM.

Q: What about the concentration at 1500 min (male, Han Wistar, rat, prefrontal cortex microdialysate, oral, 50 mg/kg, rats, 50 mg/kg, individual animals, read-out: Concentration in Prefrontal cortex) of the same compound?
A: Its concentration at 1500 min is 71.6 nM.

Q: And the concentration at 120 min (male, Han Wistar, rat, prefrontal cortex microdialysate, oral, 50 mg/kg, 120 min, individual rats, read-out: Concentration in Rats, Prefrontal cortex)?
A: The concentration at 120 min was 972 nM.

Q: What about the concentration at 1500 min (male, Han Wistar, rat, prefrontal cortex microdialysate, oral, 50 mg/kg, individual rats, read-out: Concentration in Rats, Prefrontal cortex) of the same compound?
A: The concentration at 1500 min was 71.6 nM.
